# Tests used:
# Assay in all cases: Test D pre/postemergence
# Format in all cases: in vivo
# Conditions in all cases: scale 0 to 100 (100 = complete control)
# [1] = system: Russian thistle (Salsola kali)
# Source text: (§1) Seeds of plant species selected from catchweed bedstraw (galium; Galium aparine), common chickweed (Stellaria media), kochia (Kochia scoparia), lambsquarters (Chenopodium album), pigweed (Amaranthus retroflexus), Russian thistle (Salsola kali), wild buckwheat (Polygonum convolvulus), wild mustard (Sinapis arvensis), winter barley (Hordeum vulgare), and wheat (Triticum aestivum) were planted and treated preemergence with test chemicals formulated in a non-phytotoxic solvent mixture which included a surfactant.
# (§2) At the same time, plants selected from these crop and weed species were treated with postemergence applications of some of the test chemicals formulated in the same manner. Plants ranged in height from 2 to 18 cm (1- to 4-leaf stage) for postemergence treatments. Treated plants and controls were maintained in a controlled growth environment for 15 to 25 days after which time all species were compared to controls and visually evaluated. Plant response ratings, summarized in Table D, are based on a scale of 0 to 100 where 0 is no effect and 100 is complete control. A dash (-) response means no test result.
# [2] = system: catchweed bedstraw (galium; Galium aparine)
# Source text: as §1, §2
# [3] = system: common chickweed (Stellaria media)
# Source text: as §1, §2
# kochia (Kochia scoparia) = system: kochia (Kochia scoparia)
# Source text: as §1, §2
# [4] = system: lambsquarters (Chenopodium album)
# Source text: as §1, §2
# [5] = system: pigweed (Amaranthus retroflexus)
# Source text: as §1, §2
# [6] = system: wheat (Triticum aestivum)
# Source text: as §1, §2
# [7] = system: wild buckwheat (Polygonum convolvulus)
# Source text: as §1, §2
# [8] = system: wild mustard (Sinapis arvensis)
# Source text: as §1, §2
structure (smiles),measurement,setting,value
"COC(=O)c1nc(C2CC2)nc(N)c1Br [Compound 2, methyl 6-amino-5-bromo-2-cyclopropyl-4-pyrimidinecarboxylate]","Plant response rating, Russian Thistle","[1]; Postemergence, 16 g ai/ha",65
same,"Plant response rating, Russian Thistle","[1]; Postemergence, 31 g ai/ha",85
same,"Plant response rating, Russian Thistle","[1]; Postemergence, 62 g ai/ha",95
same,"Plant response rating, Russian Thistle","[1]; Postemergence, 125 g ai/ha",100
same,"Plant response rating, Russian Thistle","[1]; Preemergence, 16 g ai/ha",85
same,"Plant response rating, Russian Thistle","[1]; Preemergence, 31 g ai/ha",100
same,"Plant response rating, Russian Thistle","[1]; Preemergence, 62 g ai/ha",100
same,"Plant response rating, Russian Thistle","[1]; Preemergence, 125 g ai/ha",100
same,"Plant response rating, Galium","[2]; Postemergence, 16 g ai/ha",75
same,"Plant response rating, Galium","[2]; Postemergence, 31 g ai/ha",100
same,"Plant response rating, Galium","[2]; Postemergence, 62 g ai/ha",100
same,"Plant response rating, Galium","[2]; Postemergence, 125 g ai/ha",100
same,"Plant response rating, Galium","[2]; Preemergence, 16 g ai/ha",80
same,"Plant response rating, Galium","[2]; Preemergence, 31 g ai/ha",90
same,"Plant response rating, Galium","[2]; Preemergence, 62 g ai/ha",98
same,"Plant response rating, Galium","[2]; Preemergence, 125 g ai/ha",100
same,"Plant response rating, Chickweed","[3]; Postemergence, 16 g ai/ha",60
same,"Plant response rating, Chickweed","[3]; Postemergence, 31 g ai/ha",60
same,"Plant response rating, Chickweed","[3]; Postemergence, 62 g ai/ha",85
same,"Plant response rating, Chickweed","[3]; Postemergence, 125 g ai/ha",85
same,"Plant response rating, Chickweed","[3]; Preemergence, 16 g ai/ha",60
same,"Plant response rating, Chickweed","[3]; Preemergence, 31 g ai/ha",60
same,"Plant response rating, Chickweed","[3]; Preemergence, 62 g ai/ha",75
same,"Plant response rating, Chickweed","[3]; Preemergence, 125 g ai/ha",90
same,"Plant response rating, Kochia","kochia (Kochia scoparia); Postemergence, 16 g ai/ha",75
same,"Plant response rating, Kochia","kochia (Kochia scoparia); Postemergence, 31 g ai/ha",100
same,"Plant response rating, Kochia","kochia (Kochia scoparia); Postemergence, 62 g ai/ha",100
same,"Plant response rating, Kochia","kochia (Kochia scoparia); Postemergence, 125 g ai/ha",100
same,"Plant response rating, Kochia","kochia (Kochia scoparia); Preemergence, 16 g ai/ha",55
same,"Plant response rating, Kochia","kochia (Kochia scoparia); Preemergence, 31 g ai/ha",70
same,"Plant response rating, Kochia","kochia (Kochia scoparia); Preemergence, 62 g ai/ha",100
same,"Plant response rating, Kochia","kochia (Kochia scoparia); Preemergence, 125 g ai/ha",100
same,"Plant response rating, Lambsquarters","[4]; Postemergence, 16 g ai/ha",60
same,"Plant response rating, Lambsquarters","[4]; Postemergence, 31 g ai/ha",100
same,"Plant response rating, Lambsquarters","[4]; Postemergence, 62 g ai/ha",100
same,"Plant response rating, Lambsquarters","[4]; Postemergence, 125 g ai/ha",100
same,"Plant response rating, Lambsquarters","[4]; Preemergence, 31 g ai/ha",85
same,"Plant response rating, Lambsquarters","[4]; Preemergence, 62 g ai/ha",95
same,"Plant response rating, Lambsquarters","[4]; Preemergence, 125 g ai/ha",100
same,"Plant response rating, Pigweed","[5]; Postemergence, 16 g ai/ha",65
same,"Plant response rating, Pigweed","[5]; Postemergence, 31 g ai/ha",85
same,"Plant response rating, Pigweed","[5]; Postemergence, 62 g ai/ha",100
same,"Plant response rating, Pigweed","[5]; Postemergence, 125 g ai/ha",100
same,"Plant response rating, Pigweed","[5]; Preemergence, 16 g ai/ha",65
same,"Plant response rating, Pigweed","[5]; Preemergence, 31 g ai/ha",70
same,"Plant response rating, Pigweed","[5]; Preemergence, 62 g ai/ha",85
same,"Plant response rating, Pigweed","[5]; Preemergence, 125 g ai/ha",100
same,"Plant response rating, Wheat","[6]; Postemergence, 16 g ai/ha",70
same,"Plant response rating, Wheat","[6]; Postemergence, 31 g ai/ha",70
same,"Plant response rating, Wheat","[6]; Postemergence, 62 g ai/ha",100
same,"Plant response rating, Wheat","[6]; Postemergence, 125 g ai/ha",100
same,"Plant response rating, Wheat","[6]; Preemergence, 16 g ai/ha",45
same,"Plant response rating, Wheat","[6]; Preemergence, 31 g ai/ha",60
same,"Plant response rating, Wheat","[6]; Preemergence, 62 g ai/ha",70
same,"Plant response rating, Wheat","[6]; Preemergence, 125 g ai/ha",70
same,"Plant response rating, Buckwheat, Wild","[7]; Postemergence, 16 g ai/ha",45
same,"Plant response rating, Buckwheat, Wild","[7]; Postemergence, 31 g ai/ha",65
same,"Plant response rating, Buckwheat, Wild","[7]; Postemergence, 62 g ai/ha",90
same,"Plant response rating, Buckwheat, Wild","[7]; Postemergence, 125 g ai/ha",95
same,"Plant response rating, Buckwheat, Wild","[7]; Preemergence, 16 g ai/ha",45
same,"Plant response rating, Buckwheat, Wild","[7]; Preemergence, 31 g ai/ha",65
same,"Plant response rating, Buckwheat, Wild","[7]; Preemergence, 62 g ai/ha",80
same,"Plant response rating, Buckwheat, Wild","[7]; Preemergence, 125 g ai/ha",85
same,"Plant response rating, Mustard, Wild","[8]; Postemergence, 16 g ai/ha",65
same,"Plant response rating, Mustard, Wild","[8]; Postemergence, 31 g ai/ha",65
same,"Plant response rating, Mustard, Wild","[8]; Postemergence, 62 g ai/ha",70
same,"Plant response rating, Mustard, Wild","[8]; Postemergence, 125 g ai/ha",80
same,"Plant response rating, Mustard, Wild","[8]; Preemergence, 16 g ai/ha",50
same,"Plant response rating, Mustard, Wild","[8]; Preemergence, 31 g ai/ha",70
same,"Plant response rating, Mustard, Wild","[8]; Preemergence, 62 g ai/ha",70
same,"Plant response rating, Mustard, Wild","[8]; Preemergence, 125 g ai/ha",85

# From patent publication US8802597B2, “Herbicidal pyrimidines” (E I du Pont de Nemours and Company, priority 2003, dated 2014)
